Test results published in patent publication US20060188898A1, “Markers for roscovitine” (Cyclacel Limited, priority 2003, published 2006).

What was measured:
HT29 colon cancer cells [1] = experiment: cDNA microarray analysis of mRNA expression in treated HT29 cells; assay type: cell-based
Text: Total RNA was extracted from cell pellets using TriZol (Life Technologies) and mRNA was purified using the Qiagen Oligotex system. mRNA from control and treated cells was labelled with either Cy3 or Cy5 (NEN or Amersham) fluorescent dCTPs respectively, creating cDNA probes. cDNA microarray slides are made and used as described in Eisen, MB and Brown PO. (1999) DNA Arrays for Analysis of Gene Expression. Methods in Enzymology 303:179-205.
The cDNA probes were then hybridised to the cDNA microarray slides overnight and then washed and scanned using an Axon Labs GenePix 4000B scanner. The slides were verified using GenePix software and normalised prior to analysis in GeneSpring.
A 2 fold cut-off was used to assign significance to a change in mRNA expression. Therefore, any mRNA with a normalised ratio of medians less than 0.5 (FIGS. 1, 3, 5 and 7) or greater than 2 (FIGS. 2, 4, 6 and 8) is deemed significant.

cell cycle progression = conditions: cited from earlier work
CDK9 = CDK9 (Homo sapiens, UniProt P50750); conditions: cited from earlier work
HT29 colon cancer cells [2] = experiment: Western blotting of protein expression in treated HT29 cells
Description: HT29 colon cancer cells were seeded into T175 flasks at 3×10^6 cells per flask and allowed to attach for 48 h. […] A cell pellet was made for protein analysis and RNA analysis.
To harvest cells, the medium was removed and cells were incubated with 5 ml trypsin for 5 min at 37° C. to detach them from the plastic. The cells were then pelleted, washed in ice cold PBS and resuspended in ice cold lysis buffer containing 50 mM HEPES pH7.4, 250 mM NaCl, 0.1% NP40, 1 mM DTT, 1 mM EDTA, 1 mM NaF, 10 mM β-glycerophosphate, 0.1 mM sodium orthovanadate and 1 complete protease inhibitor cocktail tablet (Roche, East Sussex, UK) per 10 ml of lysis buffer for 30 minutes on ice. Lysates were centrifuged at approx. 18, 000×g for 10 minutes at 4° C. to remove cellular debris. The supernatant was stored at −80° C. prior to use. The protein concentration of lysates was determined using the BCA protein assay (Pierce, Rockford, USA). Proteins were separated by SDS-PAGE using Novex precast tris-glycine gels (Invitrogen, Groningen, The Netherlands) and transferred to Immobilon-P membranes (Millipore, Bedford, USA). Membranes were blocked for 1 hour in TBS™ 50 mM Tris pH7.5, 150 mM NaCl, 0.1% Tween 20 (Sigma, Dorset, UK) and 3% milk. Immunoblotting with primary antibodies diluted in TBS™ was performed at 4° C. overnight, followed by a 1 hour incubation with HRP-conjugated secondary antibodies at room temperature. Membranes were washed with ECL reagents and exposed to Hyperfilm (Amersham Pharmacia Biotech, Buckinghamshire, UK).

CDK7 = CDK7 (Homo sapiens, UniProt P50613); conditions: cited from earlier work
[3] = 50 μM CYC202, time course 4-48 h
[4] = 50 μM CYC202, time course 4-48 h, Western blot

Sequence of CDK9 (P50750 whole entry, species assumed): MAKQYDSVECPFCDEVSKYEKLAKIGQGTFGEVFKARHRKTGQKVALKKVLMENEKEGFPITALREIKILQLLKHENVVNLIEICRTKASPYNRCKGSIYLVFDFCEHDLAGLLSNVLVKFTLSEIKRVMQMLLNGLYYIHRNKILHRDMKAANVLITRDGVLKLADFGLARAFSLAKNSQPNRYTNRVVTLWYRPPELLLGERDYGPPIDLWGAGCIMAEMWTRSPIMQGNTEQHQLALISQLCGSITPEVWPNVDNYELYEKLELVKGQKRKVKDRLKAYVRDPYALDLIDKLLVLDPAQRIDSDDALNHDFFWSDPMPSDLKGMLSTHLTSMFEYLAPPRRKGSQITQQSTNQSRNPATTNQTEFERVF
Sequence of CDK9 (O60563 whole entry partner, species assumed): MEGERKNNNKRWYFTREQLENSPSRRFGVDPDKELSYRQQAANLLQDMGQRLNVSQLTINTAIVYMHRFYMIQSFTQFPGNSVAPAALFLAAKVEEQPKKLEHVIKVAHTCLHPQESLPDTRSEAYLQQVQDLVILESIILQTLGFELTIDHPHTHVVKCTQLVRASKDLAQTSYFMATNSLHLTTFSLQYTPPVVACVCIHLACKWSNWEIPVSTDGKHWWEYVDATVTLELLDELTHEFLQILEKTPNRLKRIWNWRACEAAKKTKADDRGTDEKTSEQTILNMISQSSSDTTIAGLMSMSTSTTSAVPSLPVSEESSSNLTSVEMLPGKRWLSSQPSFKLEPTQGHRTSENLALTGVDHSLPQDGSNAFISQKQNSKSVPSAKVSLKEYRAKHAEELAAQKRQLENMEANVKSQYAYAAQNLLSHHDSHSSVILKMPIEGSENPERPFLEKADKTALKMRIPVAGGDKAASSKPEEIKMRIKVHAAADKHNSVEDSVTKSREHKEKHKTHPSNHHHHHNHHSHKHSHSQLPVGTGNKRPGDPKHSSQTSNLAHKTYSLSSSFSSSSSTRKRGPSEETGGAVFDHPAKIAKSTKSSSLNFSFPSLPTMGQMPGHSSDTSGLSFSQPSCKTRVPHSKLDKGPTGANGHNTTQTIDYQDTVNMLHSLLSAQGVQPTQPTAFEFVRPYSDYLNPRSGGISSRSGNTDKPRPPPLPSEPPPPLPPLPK
Sequence of CDK7 (P50613 whole entry, species assumed): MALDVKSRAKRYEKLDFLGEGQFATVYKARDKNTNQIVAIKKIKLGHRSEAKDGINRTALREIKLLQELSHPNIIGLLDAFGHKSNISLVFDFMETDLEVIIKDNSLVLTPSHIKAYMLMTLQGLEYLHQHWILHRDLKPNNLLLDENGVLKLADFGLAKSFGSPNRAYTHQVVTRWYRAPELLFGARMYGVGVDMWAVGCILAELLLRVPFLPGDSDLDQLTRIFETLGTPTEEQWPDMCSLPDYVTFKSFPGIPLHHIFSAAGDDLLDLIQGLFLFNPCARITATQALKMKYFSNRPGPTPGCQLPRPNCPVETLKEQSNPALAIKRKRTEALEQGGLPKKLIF
Sequence of CDK7 (P51946 whole entry partner, species assumed): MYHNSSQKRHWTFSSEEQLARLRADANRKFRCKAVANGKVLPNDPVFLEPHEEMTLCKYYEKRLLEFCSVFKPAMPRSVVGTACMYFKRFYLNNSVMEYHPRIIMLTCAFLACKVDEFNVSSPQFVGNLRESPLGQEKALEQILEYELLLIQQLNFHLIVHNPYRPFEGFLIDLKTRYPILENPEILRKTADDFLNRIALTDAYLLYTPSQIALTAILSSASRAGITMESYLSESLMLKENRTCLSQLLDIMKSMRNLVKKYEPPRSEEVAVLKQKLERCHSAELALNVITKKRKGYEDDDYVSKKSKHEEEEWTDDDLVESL

CC[C@H](CO)Nc1nc(NCc2ccccc2)c2ncn(C(C)C)c2n1 [CYC202, 2-(R)-(1-ethyl-2-hydroxyethylamino)-6-benzylamino-9-isopropylpurine]
c-JUN mRNA expression (HT29 colon cancer cells [1]; 50 μM CYC202, 4-48 h): induced to significant levels from 4 h and is maintained at that level for the duration of the experiment
EGR-1 mRNA expression (HT29 colon cancer cells [1]; 50 μM CYC202, 4-48 h, two fold cut off): induced from as early as 4 h and is maintained above the two fold cut off for the duration of the experiment
aurora 1 mRNA expression (HT29 colon cancer cells [1]; [3]): markedly inhibited
cyclin B2 mRNA expression (HT29 colon cancer cells [1]; [3]): markedly inhibited
polo-like kinase 1 mRNA expression (HT29 colon cancer cells [1]; [3]): markedly inhibited
effect on cell cycle progression (cell cycle progression): block cell cycle progression in late G1/early S and in M-phase
inhibition of CDK9 (CDK9): inhibit
c-JUN protein expression (HT29 colon cancer cells [2]; 50 μM CYC202, 4 h and 12 h, Western blot, phosphorylated, active form): induced at 4 h and 12 h
EGR-1 protein expression (HT29 colon cancer cells [2]; 50 μM CYC202, Western blot): transiently induced at 12 h
c-JUN protein expression (HT29 colon cancer cells [2]; 50 μM CYC202, after 24 h, Western blot): lost after 24 h
aurora 1 protein expression (HT29 colon cancer cells [2]; [4]): markedly inhibited
cyclin B2 protein expression (HT29 colon cancer cells [2]; [4]): markedly inhibited
polo-like kinase 1 protein expression (HT29 colon cancer cells [2]; [4]): markedly inhibited
inhibition of CDK7 (CDK7): inhibit
